Test results from PubChem BioAssay AID720696 (Broad Institute, 2013).

System: Clone20 osteoblast Shn3 3'UTR firefly luciferase, 24 h
Assay: inhibitors of Schnurri-3 3'UTR luciferase expression – cell-based, luminescence, dry powder, dose response (AID 720696)

Point of comparison: `Cc1ccc2cc(CN(CC3CCCO3)C(=O)NC3CCCCC3)c(=O)[nH]c2c1C` (stereo not drawn), AC50 5.22 µM. Against it:
- CC(C)[C@H](NC(=O)OC(C)(C)C)c1nnc(S(=O)(=O)Cc2c(F)cccc2Cl)o1 — 3.3-fold higher, 17.1 µM
- CN(C)S(=O)(=O)c1cccc(NC(=O)c2cccc(S(=O)(=O)N3CCc4ccccc43)c2)c1 — 2.2-fold lower, 2.41 µM
- CN(C)c1nc(-c2ccccn2)nnc1-c1ccccc1 — 2-fold lower, 2.62 µM
- COc1cc(CN2CCc3ccccc3C2)ccc1O — 2.5-fold lower, 2.09 µM
- CC(=O)N1CCN(C(=O)CCc2cc(C(C)(C)C)c(O)c(C(C)(C)C)c2)CC1 — within 1.5-fold, 4.01 µM
- COc1ccccc1N1CCN(c2ncc(C(=O)N3CCN(c4cccc(Cl)c4)CC3)c3ccccc23)CC1 — 2.1-fold lower, 2.54 µM
- Nc1nonc1C(=O)NCCNCc1cc(Br)ccc1OCc1ccc(F)cc1 — 2.6-fold lower, 2.03 µM
- CCOC(=O)c1ccc(NC(=O)Cn2ncc(Cl)c(Cl)c2=O)cc1 — 2-fold lower, 2.56 µM
- Fc1ccc(-n2nnnc2-c2cnc(-c3cccs3)nc2C(F)(F)F)cc1 — 1.9-fold lower, 2.76 µM
- CCOC(=O)C1CCN(C(=O)c2ccc(OCC(=O)Nc3cccc(C(F)(F)F)c3)c(OC)c2)CC1 — 3.7-fold lower, 1.4 µM
- COc1ccc(NS(=O)(=O)c2ccc(C(=O)N3CCCCCC3)cc2)cc1 — within 1.5-fold, 3.7 µM
- COc1cc2ncnc(N[C@H](C)c3ccccc3)c2cc1OC — within 1.5-fold, 5.13 µM
- CCCc1nnc(NC(=O)c2nc(S(=O)(=O)Cc3ccc(C)cc3)ncc2Cl)s1 — within 1.5-fold, 3.83 µM
- CC(=O)Nc1cccc(NC(=O)CSc2ncc(-c3ccc(Cl)cc3)n2Cc2ccco2)c1 — 1.5-fold lower, 3.38 µM
- O=C(c1nnsc1S(=O)c1ccc(Cl)cc1)N1CCOCC1 (stereo not drawn) — within 1.5-fold, 5.08 µM
- CCOC(=O)C1(Cc2ccc(Cl)cc2)CCN(C(C)Cc2ccc(O)c(OC)c2)CC1 (stereo not drawn) — 3.2-fold lower, 1.62 µM
- CC(C)(C)NC(=O)CSc1nc2ccc(NC(=O)CSc3nnnn3Cc3ccccc3)cc2s1 — 2.4-fold lower, 2.14 µM
- O=C1CSc2ccc(C(=O)Nc3cccc(S(=O)(=O)Nc4ccc(Br)cc4)c3)cc2N1 — 2.6-fold lower, 1.99 µM
- CCCOc1ccccc1C1CC(=O)Nc2cc3c(cc21)OCO3 (stereo not drawn) — 2.4-fold lower, 2.16 µM
- CN(C(=O)COc1ccccc1C(=O)NCCOc1ccccc1)c1ccccc1 — 2.7-fold lower, 1.92 µM
- Cc1cc(N2CCCC2=O)cc(C)c1S(=O)(=O)NCCOc1ccc(C(C)(C)C)cc1 — 6.5-fold lower, 0.797 µM
- Cc1cc2c(cc(C(=O)N3CCC(C(=O)NC4CCCC4)CC3)n2Cc2c(F)cccc2Cl)o1 — 4.1-fold higher, 21.3 µM
- COc1ccc(NC(=O)c2nc(S(=O)(=O)Cc3cccc(C)c3)ncc2Cl)c(OC)c1 — within 1.5-fold, 3.86 µM
- COc1ccc(Nc2nc(N3CCCCC3)c3ccccc3n2)cc1 — 4.7-fold lower, 1.1 µM
- CN(CC(=O)Nc1cccc(S(=O)(=O)N2CCOCC2)c1)CC(=O)Nc1ccc(Cl)c(C(F)(F)F)c1 — 6-fold lower, 0.877 µM
- O=c1c2ccccc2nc2n1C(CSCc1ccc(Cl)cc1Cl)CS2 (stereo not drawn) — 2.6-fold lower, 2.01 µM
- COc1ccc2c(c1)c(CC(=O)Nc1cc(C)ccc1C)c(C)n2C(=O)c1ccc(Cl)cc1 — 1.6-fold lower, 3.24 µM
